{"source": "paper PMC5218480", "about": "(PLoS ONE, 2017)", "system": "MV-4-11 cells", "assay": "Gene expression microarray analysis (Affymetrix PrimeView) and GSEA", "type": "cell-based, human", "set-up": "RFU PODN (11730768_x_at) / Fold change /veh PODN (11730768_x_at) / RFU LINC00158 (11744669_a_at) / Fold change /veh LINC00158 (11744669_a_at) / RFU DUSP10 (11751237_a_at) / Fold change /veh DUSP10 (11751237_a_at) / RFU ID3 (11757404_x_at) / Fold change /veh ID3 (11757404_x_at) / RFU PLEKHG5 (11737974_s_at) / Fold change /veh PLEKHG5 (11737974_s_at) / RFU LRRC4B (11730491_at) / Fold change /veh LRRC4B (11730491_at) / RFU GIMAP4 (11747438_a_at) / Fold change /veh GIMAP4 (11747438_a_at) / RFU KRT8 (11758183_x_at) / Fold change /veh KRT8 (11758183_x_at) / RFU CNN1 (11734310_a_at) / Fold change /veh CNN1 (11734310_a_at) / RFU VPS37D (11726825_at) / Fold change /veh VPS37D (11726825_at) / RFU C10orf10 (11716522_x_at) / Fold change /veh C10orf10 (11716522_x_at) / RFU KIR2DL2 /// KIR2DL4 /// KIR2DL5A /// KIR2DL5B /// KIR2DS1 /// KIR2DS2 /// KIR2DS3 /// KIR2DS4 /// KIR3DL3 /// KIR3DL3 /// KIR3DS1 (11738374_at) / Fold change /veh KIR2DL2 /// KIR2DL4 /// KIR2DL5A /// KIR2DL5B /// KIR2DS1 /// KIR2DS2 /// KIR2DS3 /// KIR2DS4 /// KIR3DL3 /// KIR3DL3 /// KIR3DS1 (11738374_at) / RFU C1QL1 (11718748_at) / Fold change /veh C1QL1 (11718748_at) / RFU TMPRSS4 (11747572_a_at) / Fold change /veh TMPRSS4 (11747572_a_at) / RFU HAMP (11756126_x_at) / Fold change /veh HAMP (11756126_x_at) / RFU RNFT2 (11725882_a_at) / Fold change /veh RNFT2 (11725882_a_at) / RFU NR4A2 (11747474_a_at) / Fold change /veh NR4A2 (11747474_a_at) / RFU ABCC12 (11746883_a_at) / Fold change /veh ABCC12 (11746883_a_at) / RFU TMEM136 (11760407_x_at) / Fold change /veh TMEM136 (11760407_x_at) / RFU CLDN22 /// WWC2 (11732394_at) / Fold change /veh CLDN22 /// WWC2 (11732394_at) / RFU HLA-DPB1 (11760878_x_at) / Fold change /veh HLA-DPB1 (11760878_x_at) / RFU SPINT1 (11716480_a_at) / Fold change /veh SPINT1 (11716480_a_at) / RFU GAP43 (11754022_s_at) / Fold change /veh GAP43 (11754022_s_at) / RFU A4GNT (11735810_at) / Fold change /veh A4GNT (11735810_at) / RFU PRB3 (11715151_x_at) / Fold change /veh PRB3 (11715151_x_at) / RFU TUBB4B (11761932_at) / Fold change /veh TUBB4B (11761932_at) / RFU CAPN14 (11732068_a_at) / Fold change /veh CAPN14 (11732068_a_at) / RFU TMCC2 (11721928_a_at) / Fold change /veh TMCC2 (11721928_a_at) / RFU IRGQ (11745062_a_at) / Fold change /veh IRGQ (11745062_a_at) / RFU FAM174B (11720279_a_at) / Fold change /veh FAM174B (11720279_a_at) / RFU TMPRSS4 (11748680_a_at) / Fold change /veh TMPRSS4 (11748680_a_at) / RFU FAM212B (11763350_a_at) / Fold change /veh FAM212B (11763350_a_at) / RFU PLEKHG5 (11743358_a_at) / Fold change /veh PLEKHG5 (11743358_a_at) / RFU ZSCAN30 (11745921_a_at) / Fold change /veh ZSCAN30 (11745921_a_at) / RFU CMKLR1 (11741424_a_at) / Fold change /veh CMKLR1 (11741424_a_at) / RFU LOC101060620 /// MAPK8IP1 (11723275_at) / Fold change /veh LOC101060620 /// MAPK8IP1 (11723275_at) / RFU SPTSSB (11747773_x_at) / Fold change /veh SPTSSB (11747773_x_at) / RFU PRSS12 (11739890_at) / Fold change /veh PRSS12 (11739890_at) / RFU BIN1 (11741810_x_at) / Fold change /veh BIN1 (11741810_x_at) / RFU WNT11 (11732464_a_at) / Fold change /veh WNT11 (11732464_a_at) / RFU C10orf10 (11716521_a_at) / Fold change /veh C10orf10 (11716521_a_at) / RFU C5orf56 (11738089_at) / Fold change /veh C5orf56 (11738089_at) / RFU CYB561 (11721691_x_at) / Fold change /veh CYB561 (11721691_x_at) / RFU ANKRD19P (11752326_a_at) / Fold change /veh ANKRD19P (11752326_a_at) / RFU OR2T12 /// OR2T33 /// OR2T8 (11738714_s_at) / Fold change /veh OR2T12 /// OR2T33 /// OR2T8 (11738714_s_at) / RFU VCAN (11748164_a_at) / Fold change /veh VCAN (11748164_a_at) / RFU JSRP1 (11732532_at) / Fold change /veh JSRP1 (11732532_at) / RFU KRTAP10-11 (11738290_x_at) / Fold change /veh KRTAP10-11 (11738290_x_at) / RFU MYO3A (11730013_a_at) / Fold change /veh MYO3A (11730013_a_at) / RFU EBF3 (11725865_a_at) / Fold change /veh EBF3 (11725865_a_at) / RFU CAMK2N1 (11719241_x_at) / Fold change /veh CAMK2N1 (11719241_x_at) / RFU C5orf56 (11738088_a_at) / Fold change /veh C5orf56 (11738088_a_at) / RFU OLFML3 (11715873_a_at) / Fold change /veh OLFML3 (11715873_a_at) / RFU LOC100653217 /// NTM (11731650_a_at) / Fold change /veh LOC100653217 /// NTM (11731650_a_at) / RFU MAPK11 (11762145_a_at) / Fold change /veh MAPK11 (11762145_a_at) / RFU FIZ1 (11724087_x_at) / Fold change /veh FIZ1 (11724087_x_at) / RFU OASL (11726364_x_at) / Fold change /veh OASL (11726364_x_at) / RFU SOX15 (11748057_x_at) / Fold change /veh SOX15 (11748057_x_at) / RFU CD79A (11719716_a_at) / Fold change /veh CD79A (11719716_a_at) / RFU HIST1H1D (11736915_at) / Fold change /veh HIST1H1D (11736915_at) / RFU CASKIN2 (11723855_a_at) / Fold change /veh CASKIN2 (11723855_a_at) / RFU LOC730098 (11760151_x_at) / Fold change /veh LOC730098 (11760151_x_at) / RFU OR4N2 (11742367_at) / Fold change /veh OR4N2 (11742367_at) / RFU PRRT2 (11749266_a_at) / Fold change /veh PRRT2 (11749266_a_at) / RFU SNX32 (11753110_a_at) / Fold change /veh SNX32 (11753110_a_at) / RFU CDHR5 (11726645_a_at) / Fold change /veh CDHR5 (11726645_a_at) / RFU RCAN1 (11760418_a_at) / Fold change /veh RCAN1 (11760418_a_at) / RFU FAM167A (11723789_a_at) / Fold change /veh FAM167A (11723789_a_at) / RFU FAM26E (11764081_at) / Fold change /veh FAM26E (11764081_at) / RFU ISYNA1 (11749810_s_at) / Fold change /veh ISYNA1 (11749810_s_at) / RFU ACY1 (11761880_at) / Fold change /veh ACY1 (11761880_at) / RFU 11764098_at / Fold change /veh 11764098_at / RFU SAMD14 (11745864_x_at) / Fold change /veh SAMD14 (11745864_x_at) / RFU NPB (11741838_a_at) / Fold change /veh NPB (11741838_a_at) / RFU TMPRSS6 (11731388_a_at) / Fold change /veh TMPRSS6 (11731388_a_at) / RFU KRTAP10-2 (11738614_at) / Fold change /veh KRTAP10-2 (11738614_at) / RFU ARHGAP8 /// PRR5-ARHGAP8 (11727945_x_at) / Fold change /veh ARHGAP8 /// PRR5-ARHGAP8 (11727945_x_at) / RFU KRTAP5-7 /// NADSYN1 (11734609_at) / Fold change /veh KRTAP5-7 /// NADSYN1 (11734609_at) / RFU RASL12 (11751679_a_at) / Fold change /veh RASL12 (11751679_a_at) / RFU CDKN2B (11736163_a_at) / Fold change /veh CDKN2B (11736163_a_at) / RFU PRF1 (11729649_at) / Fold change /veh PRF1 (11729649_at) / RFU, ZNF638 /// ZNF638-IT1 / Fold change vs veh, ZNF638 /// ZNF638-IT1 / RFU, PANK3 / Fold change vs veh, PANK3 / RFU, SH3YL1 / Fold change vs veh, SH3YL1 / RFU, ZEB2 / Fold change vs veh, ZEB2 / RFU, NRIP1 / Fold change vs veh, NRIP1 / RFU, PTTG1IP / Fold change vs veh, PTTG1IP / RFU, CAPN2 / Fold change vs veh, CAPN2 / RFU, MED14 / Fold change vs veh, MED14 / RFU, SNORA58 / Fold change vs veh, SNORA58 / RFU, C1orf63 / Fold change vs veh, C1orf63 / RFU, LRRFIP1 / Fold change vs veh, LRRFIP1 / RFU, NDUFAF7 / Fold change vs veh, NDUFAF7 / RFU, SLC12A2 / Fold change vs veh, SLC12A2 / RFU, IBTK / Fold change vs veh, IBTK / RFU, ESF1 / Fold change vs veh, ESF1 / Fold change vs veh, TMEM50B / RFU, TAOK1 / Fold change vs veh, TAOK1 / RFU, ACBD3 / Fold change vs veh, ACBD3 / RFU, TMA16 / Fold change vs veh, TMA16 / RFU, RWDD3 / Fold change vs veh, RWDD3 / RFU, BCAT1 / Fold change vs veh, BCAT1 / RFU, EDEM3 / Fold change vs veh, EDEM3 / RFU, TMEM33 / Fold change vs veh, TMEM33 / RFU, WDR75 / Fold change vs veh, WDR75 / RFU, AHCTF1 / Fold change vs veh, AHCTF1 / RFU, TFRC / Fold change vs veh, TFRC / RFU, ZDHHC17 / Fold change vs veh, ZDHHC17 / RFU, NOM1 / Fold change vs veh, NOM1 / RFU, ARL8B / Fold change vs veh, ARL8B / RFU, ZBTB11 / Fold change vs veh, ZBTB11 / RFU, TAMM41 / Fold change vs veh, TAMM41 / RFU, KIAA1704 /// LOC100996395 / Fold change vs veh, KIAA1704 /// LOC100996395 / RFU, ING1 / Fold change vs veh, ING1 / RFU, TRMT61B / Fold change vs veh, TRMT61B / RFU, FUBP3 / Fold change vs veh, FUBP3 / RFU, TP53 / Fold change vs veh, TP53 / RFU, TNKS2 / Fold change vs veh, TNKS2 / RFU, ZFP14 / Fold change vs veh, ZFP14 / RFU, ACTR2 / Fold change vs veh, ACTR2 / RFU, PPP3R1 / Fold change vs veh, PPP3R1 / RFU, PIK3R1 / Fold change vs veh, PIK3R1 / RFU, HNRNPA1 / Fold change vs veh, HNRNPA1 / RFU, RNF170 / Fold change vs veh, RNF170 / RFU, ZNF28 / Fold change vs veh, ZNF28 / RFU, RNGTT / Fold change vs veh, RNGTT / RFU, OGT / Fold change vs veh, OGT / RFU, BRD1 / Fold change vs veh, BRD1 / RFU, MARS / Fold change vs veh, MARS / RFU, ZNF655 / Fold change vs veh, ZNF655 / RFU, FAHD1 / Fold change vs veh, FAHD1 / RFU, BDP1 / Fold change vs veh, BDP1 / RFU, LRRCC1 / Fold change vs veh, LRRCC1 / RFU, ARID1A / Fold change vs veh, ARID1A / RFU, ZNF146 / Fold change vs veh, ZNF146 / RFU, ZNF330 / Fold change vs veh, ZNF330 / RFU, GPN3 / Fold change vs veh, GPN3 / RFU, C9orf123 / Fold change vs veh, C9orf123 / RFU, N4BP2L2 / Fold change vs veh, N4BP2L2 / RFU, ARFIP1 / Fold change vs veh, ARFIP1 / RFU, FAM179B / Fold change vs veh, FAM179B / RFU, BCL10 / Fold change vs veh, BCL10 / RFU, UHRF1BP1L / Fold change vs veh, UHRF1BP1L / RFU, BET1 / Fold change vs veh, BET1 / RFU, CNOT2 / Fold change vs veh, CNOT2 / RFU, ZNF268 / Fold change vs veh, ZNF268 / Fold change vs veh, ZNF507 / RFU, DGCR2 / Fold change vs veh, DGCR2 / RFU, WDSUB1 / Fold change vs veh, WDSUB1 / Fold change vs veh, HSP90B1 /// MIR3652 / RFU, ADSS / Fold change vs veh, ADSS / RFU, GK / Fold change vs veh, GK / RFU, ZNF148 / Fold change vs veh, ZNF148 / RFU, TAF9 / Fold change vs veh, TAF9 / RFU, SLC1A5 / Fold change vs veh, SLC1A5 / RFU, SLMO2 / Fold change vs veh, SLMO2 / RFU, ABCC4 / Fold change vs veh, ABCC4 / RFU, LOC101060439 /// RAP1B / Fold change vs veh, LOC101060439 /// RAP1B / RFU, RFX7 / Fold change vs veh, RFX7 / RFU, GTPBP10 / Fold change vs veh, GTPBP10 / RFU, CNEP1R1 / Fold change vs veh, CNEP1R1 / RFU, BIVM-ERCC5 /// ERCC5 / Fold change vs veh, BIVM-ERCC5 /// ERCC5 / RFU, ILF3 / Fold change vs veh, ILF3 / RFU 11762660_at / Fold change /veh 11762660_at / RFU VCAN (11757783_s_at) / Fold change /veh VCAN (11757783_s_at) / RFU DDX43 (11728927_at) / Fold change /veh DDX43 (11728927_at) / RFU KRT8 (11758188_x_at) / Fold change /veh KRT8 (11758188_x_at) / RFU NKD1 (11759106_at) / Fold change /veh NKD1 (11759106_at) / RFU SRD5A1 (11742802_a_at) / Fold change /veh SRD5A1 (11742802_a_at) / RFU TPSAB1 /// TPSB2 (11721975_s_at) / Fold change /veh TPSAB1 /// TPSB2 (11721975_s_at) / RFU GSTM3 (11746129_a_at) / Fold change /veh GSTM3 (11746129_a_at) / RFU IL23R (11737362_x_at) / Fold change /veh IL23R (11737362_x_at) / RFU TMEM51 (11727254_a_at) / Fold change /veh TMEM51 (11727254_a_at) / RFU PIWIL2 (11732686_x_at) / Fold change /veh PIWIL2 (11732686_x_at) / RFU ORM1 (11744905_x_at) / Fold change /veh ORM1 (11744905_x_at) / RFU CCDC152 (11743942_at) / Fold change /veh CCDC152 (11743942_at) / RFU ECM1 (11717891_a_at) / Fold change /veh ECM1 (11717891_a_at) / RFU IL23R (11748794_a_at) / Fold change /veh IL23R (11748794_a_at) / RFU TNFAIP8L3 (11732012_x_at) / Fold change /veh TNFAIP8L3 (11732012_x_at) / RFU MBOAT4 (11741988_at) / Fold change /veh MBOAT4 (11741988_at) / RFU 11764193_at / Fold change /veh 11764193_at / RFU TMEM53 (11763286_at) / Fold change /veh TMEM53 (11763286_at) / RFU MAGEB2 (11727129_at) / Fold change /veh MAGEB2 (11727129_at) / RFU TMEM200A (11744735_a_at) / Fold change /veh TMEM200A (11744735_a_at) / RFU CCDC152 (11751479_a_at) / Fold change /veh CCDC152 (11751479_a_at) / RFU FAM211A (11726209_a_at) / Fold change /veh FAM211A (11726209_a_at) / RFU RGS16 (11746705_a_at) / Fold change /veh RGS16 (11746705_a_at) / RFU VCAN (11755009_s_at) / Fold change /veh VCAN (11755009_s_at) / RFU RHOB (11743442_s_at) / Fold change /veh RHOB (11743442_s_at) / RFU RGS16 (11720943_a_at) / Fold change /veh RGS16 (11720943_a_at) / RFU RGS16 (11720944_at) / Fold change /veh RGS16 (11720944_at) / RFU, VPS4B / Fold change vs veh, VPS4B / RFU, CREB1 / Fold change vs veh, CREB1 / RFU, DNAJC13 / Fold change vs veh, DNAJC13 / RFU, GNAQ / Fold change vs veh, GNAQ / RFU, CDK5R1 / Fold change vs veh, CDK5R1 / RFU, ZRANB3 / Fold change vs veh, ZRANB3 / RFU, CUL4A / Fold change vs veh, CUL4A / RFU, CCNY / Fold change vs veh, CCNY / RFU, UFL1 / Fold change vs veh, UFL1 / RFU, COG3 / Fold change vs veh, COG3 / RFU, DIAPH2 / Fold change vs veh, DIAPH2 / RFU, SKA2 / Fold change vs veh, SKA2 / RFU, AFF3 / Fold change vs veh, AFF3 / RFU, LMF1 / Fold change vs veh, LMF1 / RFU, IPO11 / Fold change vs veh, IPO11 / RFU, DFFB / Fold change vs veh, DFFB / RFU, FOXP1 / Fold change vs veh, FOXP1 / RFU, CARD8 / Fold change vs veh, CARD8 / RFU, STRN3 / Fold change vs veh, STRN3 / RFU, ADK / Fold change vs veh, ADK / RFU, RASSF2 / Fold change vs veh, RASSF2 / RFU, WIPF1 / Fold change vs veh, WIPF1 / RFU, LARP1B / Fold change vs veh, LARP1B / RFU, RASA1 / Fold change vs veh, RASA1 / RFU, RB1 / Fold change vs veh, RB1 / RFU, PPFIA1 / Fold change vs veh, PPFIA1 / RFU, MAT2A / Fold change vs veh, MAT2A / RFU, CCT5 / Fold change vs veh, CCT5 / RFU, WDR92 / Fold change vs veh, WDR92 / RFU, CUX1 / Fold change vs veh, CUX1 / RFU, TTC7A / Fold change vs veh, TTC7A / RFU, TMEM135 / Fold change vs veh, TMEM135 / RFU, DEPTOR / Fold change vs veh, DEPTOR / RFU, CPM / Fold change vs veh, CPM / RFU, DNAJB6 / Fold change vs veh, DNAJB6 / RFU, CACNA2D3 / Fold change vs veh, CACNA2D3 / RFU, DTX4 / Fold change vs veh, DTX4 / RFU, TFCP2 / Fold change vs veh, TFCP2 / RFU, GMCL1 /// GMCL1P1 / Fold change vs veh, GMCL1 /// GMCL1P1 / RFU, AEBP2 / Fold change vs veh, AEBP2 / RFU, SNHG1 /// SNORD22 /// SNORD25 /// SNORD26 /// SNORD27 /// SNORD28 /// SNORD29 /// SNORD31 / Fold change vs veh, SNHG1 /// SNORD22 /// SNORD25 /// SNORD26 /// SNORD27 /// SNORD28 /// SNORD29 /// SNORD31 / Fold change (Aza/veh), C12orf56 (ProbeSet 11735607_a_at) / Fold change (ACY-1035/veh), C12orf56 (ProbeSet 11735607_a_at) / Fold change (Aza/veh), FGFR1OP (ProbeSet 11751329_s_at) / Fold change (ACY-1035/veh), FGFR1OP (ProbeSet 11751329_s_at) / Fold change (Aza/veh), VPS36 (ProbeSet 11739960_a_at) / Fold change (ACY-1035/veh), VPS36 (ProbeSet 11739960_a_at) / RFU SYPL1 (11715823_x_at) / Fold change /veh SYPL1 (11715823_x_at) / RFU IGFBP7 (11715501_s_at) / Fold change /veh IGFBP7 (11715501_s_at) / RFU REEP3 (11722064_at) / Fold change /veh REEP3 (11722064_at) / RFU IGLL1 (11728026_x_at) / Fold change /veh IGLL1 (11728026_x_at): dose or concentration left out as unconfirmed", "settings": "MV-4-11 cells, 48 hours", "data": [{"smiles": "Nc1ccc(-c2cccs2)cc1NC(=O)c1ccc2c(c1)cc(C1CC1)n2CCN1CCOCC1", "note": "[ACY-1035]", "values": [{"measurement": "Fold change /veh CNN1 (11734310_a_at)", "result": 1.19}]}]}
